Series [1] in a line: pKa by potentiometric backtitration (compounds of Formula II, Table IX). The class given is physicochemical. The conditions noted are these: half-neutralization point taken as pKa; backtitration with 0.01N sodium hydroxide. The procedure:
Several of the compounds of the invention were characterized by their titration curves (i.e., their pKa values) as follows: To a 0.1 g sample of a compound of the invention was added with stirring 60 mL of distilled water, then 10 mL of 0.1N hydrochloric acid was added. The solution was stirred for 10 minutes. The pH of the solution was then measured potentiometrically using a Metrohm Model 670 TITROPROCESSOR™ potentiometer (Brinkman Instruments Inc., Westbury, NY) while backtitrating with 0.01N sodium hydroxide solution. The endpoints and half-neutralization points were determined by the instrument, and for the purposes of this determination the half-neutralization point is taken as the pKa.

A short description of series [2]: pKa by potentiometric backtitration (catalysts, Table I). The note with it: half-neutralization point taken as pKa; backtitration with 0.1N sodium hydroxide. The class given is physicochemical. Here is the method:
The solution was stirred for 10 minutes, then backtitrated with 0.1N sodium hydroxide solution. The pH during backtitration was measured potentiometrically using a Metrohm Model 670 TITROPROCESSOR™ potentiometer (Brinkman Instruments Inc., Westbury, NY). The endpoint and half-neutralization point were determined by the instrument, and for the purposes of this determination the half-neutralization point is taken as the pKa.

For series [3] the following is noted: Farm.Zh. (Kiev) 1990, 1, 38; cited from earlier work.
For series [4] the following is noted: Khim.-Farm.Zh. 1983, 17, 916; cited from earlier work.

For the molecule `O=C(CN1CCCC1)OCCN1CCCC1` [2-(1-Pyrrolidinyl)ethyl 1-Pyrrolidineacetate], in series [1], the “Measured pKa first” value was 9.26 and the “Measured pKa second” value turned out to be 7.12.

Turning to `CN(C)CCOC(=O)CN(C)C` [(CH3)2NCH2C(O)OCH2CH2N(CH3)2, 2-(N,N-Dimethylamino)ethyl N,N-Dimethylaminoacetate], in series [2], the “Measured pKa first” value is recorded as 8.53 and the “Measured pKa second” value is listed as 6.49.

With `O=C(CN1CCCC1)OCCN1CCCCC1` [2-(1-piperidino)ethyl 1-pyrrolidineacetate], in series [1], the “Measured pKa first” value came out at 8.97 and the “Measured pKa second” value worked out at 6.72.

Regarding `CCN(CC)CCOC(=O)CN(C)C` [2-(Diethylamino)ethyl dimethylaminoacetate], the inotropic activity result in series [3] was “significant inotropic activity”. The analgesic activity entry in series [4] is “analgesic activity”.

For `CN1CCCCC1COC(=O)CN1CCCC1` (stereo not shown) [2-(1-Methylpiperidyl)methyl 1-Pyrrolidineacetate], in series [1], the “Measured pKa first” value stood at 9.15 and the “Measured pKa second” value is recorded as 7.03.

(Values after EP0527427A2, “Catalysts and casting article, method, and composition” (MINNESOTA MINING AND MANUFACTURING COMPANY, priority 1991, dated 1993).)
